From paper PMC5384220 (Nature Communications, 2017) come the findings set out here.

The target in one experiment is T1, FLAG-KDM4A1-1,064 (Homo sapiens, UniProt O75164).
T1 construct: expressed in transfected cells; host or cells: U2OS
T1 sequence (O75164 1-1064): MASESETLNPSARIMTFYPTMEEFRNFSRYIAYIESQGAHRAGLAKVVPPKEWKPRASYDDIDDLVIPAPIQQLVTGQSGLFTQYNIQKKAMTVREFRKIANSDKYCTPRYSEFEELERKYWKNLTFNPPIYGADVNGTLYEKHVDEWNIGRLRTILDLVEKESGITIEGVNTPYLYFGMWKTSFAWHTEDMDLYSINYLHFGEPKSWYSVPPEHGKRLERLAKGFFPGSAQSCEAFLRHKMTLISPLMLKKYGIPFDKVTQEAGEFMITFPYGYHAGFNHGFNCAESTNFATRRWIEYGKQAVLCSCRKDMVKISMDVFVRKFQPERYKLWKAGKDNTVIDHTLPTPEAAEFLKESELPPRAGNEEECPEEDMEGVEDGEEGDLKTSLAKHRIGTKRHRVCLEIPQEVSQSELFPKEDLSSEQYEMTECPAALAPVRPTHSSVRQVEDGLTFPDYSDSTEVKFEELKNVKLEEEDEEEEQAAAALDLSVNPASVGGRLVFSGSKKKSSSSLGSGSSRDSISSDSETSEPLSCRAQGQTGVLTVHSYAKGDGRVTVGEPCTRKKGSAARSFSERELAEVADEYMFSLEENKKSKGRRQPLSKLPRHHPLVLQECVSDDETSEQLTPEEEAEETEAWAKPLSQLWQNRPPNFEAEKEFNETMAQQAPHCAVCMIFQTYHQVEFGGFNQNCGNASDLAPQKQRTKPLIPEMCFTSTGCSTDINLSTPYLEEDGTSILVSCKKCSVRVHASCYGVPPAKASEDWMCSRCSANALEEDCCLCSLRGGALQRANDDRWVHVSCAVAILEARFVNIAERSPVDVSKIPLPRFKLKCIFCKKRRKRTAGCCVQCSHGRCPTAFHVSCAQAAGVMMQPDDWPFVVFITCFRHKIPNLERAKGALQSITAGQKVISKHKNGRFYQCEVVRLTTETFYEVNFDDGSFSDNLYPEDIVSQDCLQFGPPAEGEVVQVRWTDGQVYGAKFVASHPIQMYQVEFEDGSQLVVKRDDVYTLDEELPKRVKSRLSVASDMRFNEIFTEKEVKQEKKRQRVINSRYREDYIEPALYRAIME
The experiment is described as follows: CETSA, FLAG-KDM4A in U2OS cells. It counts as cell-based. As to conditions: 0.5 μM, 20 h dosing, DMSO 47 °C. How it is done:
Control cells were dosed only with DMSO.

A further experiment concerns the target T2, FLAG-KDM4E (Homo sapiens, UniProt B2RXH2).
T2 construct: expressed in transfected cells; host or cells: U2OS
T2 sequence (B2RXH2 1-506): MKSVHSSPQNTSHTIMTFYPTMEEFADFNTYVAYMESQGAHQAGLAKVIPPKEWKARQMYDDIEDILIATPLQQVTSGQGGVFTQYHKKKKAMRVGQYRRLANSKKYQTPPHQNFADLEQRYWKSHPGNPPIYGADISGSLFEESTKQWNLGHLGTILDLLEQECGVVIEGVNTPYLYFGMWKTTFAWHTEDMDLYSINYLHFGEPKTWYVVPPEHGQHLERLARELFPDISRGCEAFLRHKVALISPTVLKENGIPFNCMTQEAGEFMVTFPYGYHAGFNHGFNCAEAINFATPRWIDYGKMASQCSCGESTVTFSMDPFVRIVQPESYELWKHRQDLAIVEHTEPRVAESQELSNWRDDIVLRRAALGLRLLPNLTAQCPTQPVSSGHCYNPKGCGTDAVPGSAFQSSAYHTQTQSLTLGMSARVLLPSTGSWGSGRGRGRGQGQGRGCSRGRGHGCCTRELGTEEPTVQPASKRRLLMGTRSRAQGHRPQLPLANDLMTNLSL
The experiment is described as follows: CETSA, FLAG-KDM4E in U2OS cells. It counts as cell-based. As to conditions: 0.5 µM.

A further experiment deals with actin. As to conditions: U2OS cells, 0.5 μM; same for treated and untreated cells.

Protocol for FLAG-KDM4E: For CETSA melting curve experiments, 80% confluent U2OS cells in a 75 cm^2 flask were transfected with a plasmid encoding full-length Flag-tagged KDM4A1–1,064 (ref. [15]) or KDM4E1–506 (ref. [20]) using Lipofectamine 2000 (Thermo Scientific) and incubated for 4 h. The cells were washed with PBS buffer and media replaced with fresh DMEM with 10% FBS, supplemented with cyclic peptides in DMSO (0.1% DMSO final). Cell dosing was carried out for 20 h at 37 °C. Control cells were dosed only with DMSO. The cells were trypsinized and washed thrice with PBS, by centrifugation (300 g, 3 min, 4 °C). Cells were re-suspended in PBS supplemented with Complete Protease inhibitor cocktail (Sigma) and divided into 8–10 aliquots (100 μl) containing equal cell numbers in PCR tubes. For ITDRF CETSA experiments, approximately 6 × 10^6 cells were seeded evenly into nine 25 cm^2 flask and adhered before transfection. After 4 h of incubation, the cells were washed with PBS buffer and the media replaced with fresh DMEM with 10% FBS supplemented with cyclic peptides at a final concentration between 0 and 4,000 nM (0.1% DMSO final). Cells were trypsinized and washed thrice with PBS using centrifugation (300 g, 3 min, 4 °C). Cells were re-suspended in PBS supplemented with protease inhibitor cocktail (Sigma), aliquots (100 μl) containing equal cell numbers in PCR tubes were prepared. […] For ITDRF, tubes were incubated at approximately the Tm of the proteins of interest as determined by CETSA melting curve experiments, for example, 55 °C (Tm for actin) for 3 min, followed by room temperature for 3 min. […]
The samples (supernatant) were run on SDS–PAGE (NuPage Novex Bis-Tris 4–12% polyacrylamide gels with NuPAGE MES SDS running buffer (Thermo Scientific)) and transferred onto nitrocellulose membranes using either the iBlot blotting system. FLAG-KDM4A levels were determined by immunoblotting using a monoclonal mouse anti-FLAG primary antibody (F1804, Sigma), at a dilution of 1: 1,000 in PBS-T buffer containing Seablock Reagent Salmon Plasma (2% v/v, Calbiochem). […]
Protocol for actin: For CETSA melting curve experiments, 80% confluent U2OS cells in a 75 cm^2 flask were transfected with a plasmid encoding full-length Flag-tagged KDM4A1–1,064 (ref. [15]) or KDM4E1–506 (ref. [20]) using Lipofectamine 2000 (Thermo Scientific) and incubated for 4 h. The cells were washed with PBS buffer and media replaced with fresh DMEM with 10% FBS, supplemented with cyclic peptides in DMSO (0.1% DMSO final). Cell dosing was carried out for 20 h at 37 °C. Control cells were dosed only with DMSO. The cells were trypsinized and washed thrice with PBS, by centrifugation (300 g, 3 min, 4 °C). Cells were re-suspended in PBS supplemented with Complete Protease inhibitor cocktail (Sigma) and divided into 8–10 aliquots (100 μl) containing equal cell numbers in PCR tubes. […]
The samples (supernatant) were run on SDS–PAGE (NuPage Novex Bis-Tris 4–12% polyacrylamide gels with NuPAGE MES SDS running buffer (Thermo Scientific)) and transferred onto nitrocellulose membranes using either the iBlot blotting system. FLAG-KDM4A levels were determined by immunoblotting using a monoclonal mouse anti-FLAG primary antibody (F1804, Sigma), at a dilution of 1: 1,000 in PBS-T buffer containing Seablock Reagent Salmon Plasma (2% v/v, Calbiochem). […] Western blotting band intensities were quantified using Image Studio Ver. […]

As for DYVYNTRSGWRWYZC [T13Z], the “CETSA melting temperature (Tm) of FLAG-KDM4A” value on FLAG-KDM4A1-1,064 was 59 °C. Besides, at FLAG-KDM4E, the “CETSA stabilization / Tm shift of FLAG-KDM4E” value is on record as “No significant changes in the Tm shift”. Also, the “CETSA actin Tm” value in the experiment with actin worked out at 55 °C.
